These results are taken from a melting point compilation (Tetko et al.; mined from patent text by program, amines drawn as free bases though some values may be those of a salt).

The melting point is the temperature, or range, at which the solid turns liquid.

Take `O=S1(=O)NCN(C2CCCCC2)c2cc(Cl)ccc21`: the melting point was 178 to 180 °C. In the case of `O=S(=O)(Nc1ccccc1)c1ccc(NC(=S)Nc2ccccc2)cc1` it was 160 to 162 °C; in that of `COC(=O)C(Cc1cccc(-c2nc(=O)c3ccccc3s2)c1)NC(=O)c1ccccc1` (stereo unspecified), 131 °C; in that of `CN(c1c(Cl)ccc2cc(C(=O)O)[nH]c12)S(=O)(=O)c1cccs1`, 286 to 288 °C. The result for `O=C(Nc1ccccc1S(=O)(=O)c1ccccc1)N[C@@H](Cc1ccc(NC(=O)c2c(Cl)cncc2Cl)cc1)C(=O)O` reads 214 °C; that for `CC(C)(C)OC(=O)N1CCn2c(-c3ccccc3)cc(C(N)=O)c2C1`, 208 to 210 °C.

With `CCOCc1cnc2c(NC(=O)c3c(Cl)cccc3Cl)cccc2c1Cl`, the melting point lay in the range of 121 to 123 °C. The result for `CC1(NC2=NS(=O)(=O)c3sc(Cl)cc3N2)CCC1` reads 294 to 296 °C; that for `CCOC(=O)/C=C/c1ccc(N2CCC3(CC2)OCCO3)cc1`, 115 to 116 °C. `CCCCNC(=O)NC1CCNCC1` had a melting point of 132 to 134 °C. The result for `CCCc1c(-c2cc(=O)c3c(O)cc(O)cc3o2)ccc(OC)c1O` reads 200 °C; that for `CCn1cc(CS(C)(=O)=O)c(=O)c2ccccc21`, 162 to 164 °C.

The molecule `Clc1ccc(CN2CC=C(/C=C/c3ccccc3)CC2)cc1Cl` yielded a melting point of 123 to 125 °C.

`CC(C)(CCl)C(=O)N(Cc1ccccc1Cl)OC(=O)c1ccccc1` yielded a melting point of 117 to 120 °C. The result for `CCn1nnc(-c2ccc(C(=O)N[C@@H]3CCCC[C@@H]3c3ccc(OC)c(OC)c3)cc2)n1` reads 188 to 192 °C. In the case of `O=C(C=Cc1cccnc1)C=Cc1cccnc1` it was 148 to 149 °C; in that of `O=C(NCc1ccon1)c1ccnc(N2CCN(Cc3ccc(F)cc3)C2=O)c1`, 127 to 129 °C. The result for `CC(C)(C)OC(=O)N1CCC(Oc2ccc3c(c2)NC(=O)CC3)CC1` reads 158 to 160 °C; that for `N#Cc1cc(-c2cccnc2)nn1-c1ccc(NC(=O)c2ccc(OCCCC3OCCO3)nc2)cc1`, 197 to 198 °C; that for `O=C1NCCC[C@@H]1NS(=O)(=O)c1cc(F)ccc1F`, 183 to 185 °C. Regarding `C[C@@H](CO)n1cc(C(=O)O)c(=O)c2cc(F)c(N3CCN(C)CC3)c(F)c21`, the melting point is 250 to 255 °C. In turn, `COc1ccc(CN(C)CC(=O)Nc2ccc([N+](=O)[O-])cc2)cc1OC` had a melting point of 120 °C. The result for `COC(=O)c1ccc(-c2nc(-c3ccccc3C(F)(F)F)cs2)cc1` reads 122 to 123 °C. The result for `N#Cc1cnc2cc(/C=C/c3ccncc3)ccc2c1Nc1ccc(Cl)cc1Cl` reads 240 to 242 °C; that for `CCc1cccc(CC)c1-n1c(C(=O)O)cnc1SCc1ccccc1`, 152 to 154 °C; that for `CC(C)OCCOc1ccc(-c2ccc3c(c2)C=C(C(=O)Nc2ccc(CN(C)C4CCOCC4)cc2)CCS3(=O)=O)cc1`, 214 to 215 °C.

`O=C1c2ccccc2-n2cnc(I)c2[C@@H]2CCCN12`: the melting point is 222 to 223 °C. In turn, `CCn1cc(C(=O)O)c(=O)c2cnc(N3CCN(Cc4ccc(NC(C)=O)cc4)CC3)nc21` displayed a melting point of 216 to 219 °C. In the case of `CCOC(=O)C(C)Oc1ncn(-c2ccc(Cl)c(Cl)c2)n1` (stereo unspecified) it was 69 to 71 °C. Molecule `O=C1N(N2CCOCC2)c2ccccc2C1(O)Cc1ccccn1` (stereo unspecified) gave a melting point of 168 to 170 °C. In the case of `Nc1c(C(=O)O)sc2cc(F)ccc12` it was 160 to 163 °C; in that of `O=C1c2cccc(O)c2CCC1CN1CCC(O)(c2ccccc2)CC1` (stereo unspecified), 187 to 189 °C. In the case of `COc1ccc2nc3c(cc2c1)c(Cl)nn3C` it was 138 to 139 °C. The result for `COCCOc1c(S(C)(=O)=O)ccc(C(=O)O)c1Cl` reads 89 to 92 °C; that for `COCCOc1ccc(/C=C/C(=O)NS(=O)(=O)c2ccc(Cl)cc2)c(Oc2ncc(C(F)(F)F)cc2Cl)c1`, 182 °C. For `CCCN(CCC)C(=O)CNc1ccnc(-c2ccccc2)n1`, the melting point was 74 to 75 °C. `Cc1c[nH]c(=O)nc1N`: the melting point was in the range of 264 to 269 °C. As to `COc1ccc(C2(O)OC(=O)C(c3cc(OC)c4c(c3)OCO4)=C2CC2CCCC2)cc1` (stereo unspecified), the melting point was in the range of 139 to 140 °C. The result for `COc1cc(C(=O)c2ccc(N)c(C(=O)O)c2)n2ccccc12` reads 106 °C. In the case of `CCCn1nnn(-c2cc(OCC(=O)O)c(Cl)cc2Cl)c1=O` it was 134 to 136 °C.

Take `CCOC(=O)CN(C)CCCNC(=O)C=CC(=O)Nc1ccc2ncnc(Nc3cccc(Br)c3)c2c1`: the melting point lay within 278 to 279 °C. In the case of `CCN(CC)C(=O)CCS(=O)(=O)c1cc(-c2ccccc2)nc2ccccc12` it was 100 °C; in that of `CCCc1ccc(CCc2ccc(-c3ccc(F)cc3)cc2)cc1`, 97 °C. In the case of `CN1c2ccccc2CC(=O)c2ccccc21` it was 92 to 93 °C; in that of `N#CCOc1cc(O)ccc1-c1nc2nccnc2[nH]1`, 232 to 233 °C; in that of `COc1ccc(NC(=O)N2CCc3cc(F)c(Cl)cc32)cc1N1CCN(C)CC1`, 177 to 180 °C. In the case of `CCOC(=O)C1(Nc2nc(-c3ccc(Br)cc3)cs2)CC1` it was 152 to 154 °C; in that of `CN1CCN(c2ccccc2CO)[C@@H]2c3ccccc3C[C@H]21` (relative stereo), 166 to 167 °C; in that of `COc1nsc(NC(=O)[C@H](C)NC(=O)[C@H](Cc2ccccc2)NC(=O)OCc2ccccc2)n1`, 161 to 162 °C. On to `COc1cc(C)c(N)c(C)c1Cc1ccc(C(C)C)cc1`, for which the melting point was in the range of 91 to 92 °C. With `COC(=O)C1=C(C)NC(C)=C(C(=O)OCC2CCCO2)C1c1cccc(C(F)(F)F)c1` (stereo unspecified), the melting point was in the range of 108 to 110 °C. In the case of `COc1cc(C2=CCCCC2)c(Cl)cc1C(=O)N1Cc2ccc(C(=O)N(C)Cc3cccnc3)n2Cc2ccccc21` it was 178 to 179 °C; in that of `N#Cc1ccc(NC(=O)n2ccc3cc(Oc4cc(CC(N)=O)ncn4)ccc32)cc1C(F)(F)F`, 204 to 209 °C; in that of `O=C(O)CC(Sc1ccccc1)c1ccccc1` (stereo unspecified), 85 to 90 °C. In the case of `CNc1ccc(NC(=O)c2ccc(-c3[nH]nc4c3C(=O)c3c(NC(=O)NN5CCOCC5)cccc3-4)s2)cc1` it was 230 °C. The result for `N#CC(c1ccc(Cl)cc1)c1c(Cl)cc(NN=Cc2ccccc2)cc1Cl` (stereo unspecified) reads 162 to 163 °C; that for `C[C@](O)(CBr)C(=O)Nc1ccc([N+](=O)[O-])c(C(F)(F)F)c1`, 70 to 74 °C; that for `O=C(c1ccc(-c2ccccn2)cc1)N1Cc2cccn2Cc2ccccc21`, 170 to 172 °C. For the molecule `COc1cc(C=CC(=O)C=Cc2ccc(OC(C)=O)c(OC)c2)ccc1OC(C)=O`, the melting point is 150 °C. Molecule `CC(=O)c1ccc(CC(C)OS(=O)(=O)c2ccc(C)cc2)s1` (racemic) registered a melting point of 101 to 103 °C.

`CN(C)CCCCC1CCCCN1C(=O)N1c2ccccc2C(=O)Nc2cccnc21` (stereo unspecified) had a melting point of 145 to 147 °C. In the case of `CCCN(CCC)C1Cc2cc3c(cc2C1)C(=O)N(Cc1ccccn1)C3=O` it was 130 to 135 °C; in that of `O=c1cccc(-c2ccccc2)[nH]1`, 200 °C; in that of `COc1ccc2[nH]c(=O)cc(C)c2c1`, 270 to 273 °C. In the case of `Cc1cc2cc(CN3CCCC3)cnc2cc1NC(=O)c1ccc(-c2ccc(F)cc2F)cc1` it was 158 to 160 °C; in that of `O=C(Nc1ccc(N2CCN(Cc3ccccc3)CC2)cc1)c1ccccc1-c1ccccc1`, 162 °C; in that of `Cc1ccccc1N(C(=O)Nc1cc(C)c(S(=O)(=O)C[N+](=O)[O-])c(C)c1)C(C)C`, 177 to 178 °C.

`CC(C)(CCCC(=O)O)c1ccc(O)c(C(=O)O)c1` displayed a melting point of 136 to 138 °C. The result for `CCc1ccc(C2=NC(C)(C(C)C)C(=O)N2CC=CC(=O)O)nc1` (stereo unspecified) reads 53 to 58 °C.

Consider `CNC(=O)c1ccccc1Nc1nc(Nc2ccc3c(n2)CCCCS3)ncc1Cl`, for which the melting point is 169 to 174 °C. The result for `CCCCN(C(=O)c1cc(C)oc1C)C1CC(C)(C)NC(C)(C)C1` reads 78 to 79 °C. As for `CNS(=O)(=O)c1cc(-n2nc3ccc(Cl)cn3c2=O)c(F)cc1C#N`, the melting point fell in the range of 154 to 157 °C. In the case of `Nc1cc(Oc2ccc3c(C(=O)Nc4ccc(F)c(C(F)(F)F)c4)cccc3c2)ncn1` it was 224 to 225 °C. The molecule `O=C(CC(=O)OCc1ccc([N+](=O)[O-])cc1)CC1CC(=O)N1` (stereo unspecified) yielded a melting point of 50 to 52 °C.

`COc1ccc(-c2sc3cc(OC)ccc3c2C(=O)c2ccc(O)cc2)cc1` returned a melting point of 114 to 116 °C.

`COC(=O)c1c(Cl)cc(Cl)cc1NC(=O)CSc1ccc(NC(=O)c2ccco2)cc1` registered a melting point of 133 to 135 °C. In the case of `CC1(C(=O)N2C[C@H](S(=O)(=O)c3ccc(OCC(F)(F)F)cc3C(F)(F)F)C[C@H]2C(=O)NC2(C#N)CC2)CC1` it was 126 to 127 °C. As to `O=[N+]([O-])c1cnn2c(-c3ccccc3)nc3ccccc3c12`, the melting point was 187 to 188 °C.

With `CN1CC(NCc2ccccc2)=Nc2ccc(Cl)cc2C1=O`, the melting point lay in the range of 158 to 160 °C. In the case of `O=C(Nc1ccc(Cl)cc1)OCCOc1ccc(Oc2ccccc2)cc1Cl` it was 155 to 156 °C. In the case of `COC(=O)C1(CC(N)=O)C(=O)N(C)C(=O)c2ccc(Cl)cc21` (stereo unspecified) it was 220 to 222 °C; in that of `CCCc1nc2c(N)nc3cc(OCCCCCCNC(C)=O)ccc3c2n1CCCCNS(C)(=O)=O`, 168 to 172 °C; in that of `O=Cc1ccccc1C=C1c2ccccc2CCc2ccccc21`, 199 °C.

`Cc1nc(-n2ccc(OCc3ccc(F)cc3)cc2=O)sc1C(=O)NCc1ccc(F)cc1`: the melting point was 249 to 251 °C. `Cc1c(SCc2ccc(C(C)(C)C)cc2)cnn(C(C)(C)C)c1=O` returned a melting point of 91 to 92 °C. In the case of `Nc1cc(-n2cc(C(=O)O)c(=O)c3cc(F)c(NCCO)c(Cl)c32)c(F)cc1F` it was 215 to 219 °C.
